Key:
[1] = Inhibition of Rolipram binding to PDE4
[2] = biological target: Phosphodiesterase 4 (Cavia porcellus); experiment: Inhibition of PDE4 from guinea pig macrophages
[3] = biological target: Phosphodiesterase 4 (Cavia porcellus); experiment: Inhibition of Phosphodiesterase 4 (PDE4) from guinea pig macrophages
[4] = Bioavailability in mouse; type: ADME, organism-based; conditions: in vivo
Mus musculus = organism: Mus musculus; experiment: Inhibition of lipopolysaccharide (LPS) stimulated TNF-alpha release in mice after peroral dose; type: functional; conditions: po
Rattus norvegicus [5] = organism: Rattus norvegicus; experiment: Inhibition of streptococcal cell wall(SCW) induced arthritis in rat; type: functional
[6] = Compound was evaluated for its bioavailability in mice at a dose of 1 mg/kg; type: ADME, organism-based; conditions: mouse, in vivo
[7] = Rapid plasma clearance of compound was determined; type: ADME
Rattus norvegicus [8] = organism: Rattus norvegicus; experiment: Inhibition of streptococcal cell wall(SCW) induced arthritis in rat on peroral dose; type: functional; conditions: po
Phosphodiesterase 4 = Phosphodiesterase 4 (Homo sapiens, UniProt P27815+Q08499+Q07343+Q08493); experiment: Inhibition of Phosphodiesterase 4 (PDE4) from guinea pig macrophages; type: protein assay, Cavia porcellus; conditions: target entry is the homologue from another species

Compound	Ki [1] [nM]	IC50 [2] [nM]	also measured
COc1ccc(C(=O)Nc2c(Cl)cncc2Cl)c2nc(C3CCCC3)n(C)c12	10000	4400	
COCc1nc2c(OC)ccc(C(=O)Nc3c(Cl)cncc3Cl)c2[nH]1	25		bioavailability [4]: 35%; ED50 (Mus musculus): 2 mg/kg; ED50 (Rattus norvegicus [5]): 10 mg/kg
COc1ccc(C(=O)Nc2c(Cl)cncc2Cl)c2[nH]c(C)nc12	712	450	
COc1ccc(C(=O)Nc2c(Cl)cncc2Cl)c2[nH]c(Cc3ccccc3)nc12	75	25	
COc1ccc(C(=O)Nc2c(Cl)cncc2Cl)cc1OC1CCCC1	1		bioavailability [4]: < 5%
COc1ccc(C(=O)Nc2c(Cl)cncc2Cl)c2c1nc(C1CCCC1)n2C	340	540	
OCCN(CCO)c1nc(N2CCCCC2)c2nc(N(CCO)CCO)nc(N3CCCCC3)c2n1 [DIPYRIDAMOLE]			IC50 (Phosphodiesterase 4): 500 nM

Second part, led by results:

Ki [1] [nM]	IC50 [2] [nM]	Compound	also measured
24		COc1ccc(C(=O)Nc2c(Cl)c[n+]([O-])cc2Cl)c2[nH]c(C(C)C)nc12	IC50 [3]: 28 nM
1	2	COc1ccc(C(=O)Nc2c(Cl)cncc2Cl)c2[nH]c(C3CC3)nc12	
56	23	COc1ccc(C(=O)Nc2c(Cl)cncc2Cl)c2[nH]c(CCc3ccccc3)nc12	
540	100	COc1ccc(C(=O)Nc2c(Cl)cncc2Cl)c2[nH]c(C3CCCC3)nc12	
45		COCc1nc2c(OC)ccc(C(=O)Nc3c(Cl)c[n+]([O-])cc3Cl)c2[nH]1	bioavailability [6]: 87%; half-life [7]: 2.5 h; ED50 (Mus musculus): 7 mg/kg; ED50 (Rattus norvegicus [8]): 5 mg/kg; IC50 [3]: 45 nM
24	27	COc1ccc(C(=O)Nc2c(Cl)cncc2Cl)c2[nH]c(C(C)C)nc12	bioavailability [4]: 16%; ED50 (Mus musculus): 10 mg/kg

— ChEMBL document CHEMBL1131515, “2-Substituted-4-methoxybenzimidazole-based PDE4 inhibitors” (Bioorg Med Chem Lett, 1998)
